A word on the inhibition: it is the percentage by which the read-out fell short of the control.

From patent US20260184663A1, “INDENE COMPOUNDS, PHARMACEUTICAL COMPOSITIONS THEREOF, AND THEIR THERAPEUTIC APPLICATIONS” (NucMito Pharmaceuticals co. Ltd., priority 2022, published 2026) come the findings set out here.

Holding throughout (type): cell-based
The subject of assay [1] is MDA-MB-231 (breast cancer). Briefly: Antiproliferative activity (CCK-8 cell viability), MDA-MB-231. Particulars: Homo sapiens, 72 h, read-out: Antiproliferative activity in cancerous cells, MDA-MB-231 (inhibition of cell growth); for inhibition at 3.3 µM: Compound concentration: 3.3 μM; for inhibition at 10 µM: Compound concentration: 10 μM; for inhibition at 30 µM: Compound concentration: 30 μM. In a few lines:
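Growth inhibition of human MDA-MB-231 breast cancer cells was assessed with a Cell Counting Kit-8. Cells cultured in DMEM plus 10% FBS were seeded at 2,000-5,000 cells/well, treated after attachment, and kept 72 h at 37° C. CCK-8 solution (10 μL) was added for 4 h, and absorbance at 450 nm was compared with DMSO-treated controls.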

A further assay relates to HepG2 (liver cancer). Briefly: Antiproliferative activity (CCK-8 cell viability), HepG2. The note with it: Homo sapiens, 72 h, read-out: Antiproliferative activity in cancerous cells, HepG2 (inhibition of cell growth); for inhibition at 3.3 µM: Compound concentration: 3.3 μM; for inhibition at 10 µM: Compound concentration: 10 μM; for inhibition at 30 µM: Compound concentration: 30 μM. In a few lines: (§1)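 Growth inhibition graded in bands from percent viability against DMSO vehicle, read as CCK-8 absorbance at 450 nm. Compound tested at 3.3, 10 or 30 μM for 72 h, 37 °C; media contained 10% FBS: DMEM for HepG2/SW480, MEM for HeLa, F-12K for A549.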

The next assay deals with SW480 (colon cancer). Briefly: Antiproliferative activity (CCK-8 cell viability), SW480. The note with it: Homo sapiens, 72 h, read-out: Antiproliferative activity in cancerous cells, SW480 (inhibition of cell growth); for inhibition at 3.3 µM: Compound concentration: 3.3 μM; for inhibition at 10 µM: Compound concentration: 10 μM; for inhibition at 30 µM: Compound concentration: 30 μM. In a few lines:
as §1

Assay [2] deals with B16F10 (malignant melanoma). Description: Antiproliferative activity (CCK-8 cell viability), B16F10. The note with it: Mus musculus, 72 h, read-out: Antiproliferative activity in cancerous cells, B16F10 (inhibition of cell growth); for inhibition at 3.3 µM: B16-F10, Compound concentration: 3.3 μM; for inhibition at 10 µM: B16-F10, Compound concentration: 10 μM; for inhibition at 30 µM: B16-F10, Compound concentration: 30 μM. In a few lines: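 Cell growth inhibition was measured in B16F10 malignant melanoma cells with a Cell Counting Kit-8 viability assay. Cells were maintained in DMEM plus 10% fetal bovine serum, seeded at 2,000-5,000 cells/well in 96-well plates, and treated for 72 h at 37° C. Viability was expressed relative to DMSO-treated vehicle control wells.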

The subject of assay [3] is A431 (epidermoid carcinoma). Description: Antiproliferative activity (CCK-8 cell viability), A431. The note with it: Homo sapiens, 72 h, read-out: Antiproliferative activity in cancerous cells, A431 (inhibition of cell growth); for inhibition at 3.3 µM: A-431, Compound concentration: 3.3 μM; for inhibition at 10 µM: A-431, Compound concentration: 10 μM; for inhibition at 30 µM: A-431, Compound concentration: 30 μM. In a few lines:
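This growth inhibition assay used A431 cells maintained in Dulbecco's modified Eagle's medium plus 10% fetal bovine serum. Cells were seeded in 96-well plates, treated with compound for 72 h at 37° C., and then given 10 μL CCK-8 solution. After a further 4 h, absorbance was read at 450 nm.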

For assay [4], the system named is A549 (lung adenocarcinoma). Briefly: Antiproliferative activity (CCK-8 cell viability), A549. Particulars: Homo sapiens, 72 h, read-out: Antiproliferative activity in cancerous cells, A549 (inhibition of cell growth); for inhibition at 3.3 µM: Compound concentration: 3.3 μM; for inhibition at 10 µM: Compound concentration: 10 μM; for inhibition at 30 µM: Compound concentration: 30 μM. In a few lines:
as §1

The subject of the next assay is HeLa (cervical cancer). Briefly: Antiproliferative activity (CCK-8 cell viability), HeLa. The note with it: Homo sapiens, 72 h, read-out: Antiproliferative activity in cancerous cells, HELA (inhibition of cell growth); for inhibition at 3.3 µM: Compound concentration: 3.3 μM; for inhibition at 10 µM: Compound concentration: 10 μM; for inhibition at 30 µM: Compound concentration: 30 μM. In a few lines:
as §1

As to `CC1=C(CC(=O)O)c2cc(F)ccc2/C1=C\c1cccc(OC2CCC(F)(F)CC2)c1` [C206, (Z)-2-(1-(3-((4,4-Difluorocyclohexyl)oxy)benzylidene)-5-fluoro-2-methyl-1H-inden-3-yl)acetic acid], the inhibition at 3.3 µM in assay [1] is no less than 50%; with HepG2 (liver cancer), less than 30%; in the assay with SW480 (colon cancer), 30 to 50%; in assay [2], no less than 50%; in assay [3], 30 to 50%; in assay [4], less than 30%. Besides, the inhibition at 3.3 µM in the assay with HeLa (cervical cancer) was less than 30%. The inhibition at 10 µM was no less than 50% in assay [1]; no less than 50% in the assay with HepG2 (liver cancer); no less than 50% in the assay on SW480 (colon cancer); no less than 50% in assay [2]; 30 to 50% in assay [3]; no less than 50% in assay [4]. Moreover, the inhibition at 10 µM with HeLa (cervical cancer) is no less than 50%. The inhibition at 30 µM (in assay [1]; with HepG2 (liver cancer); with SW480 (colon cancer); in assay [2]; in assay [3]; in assay [4]) was no less than 50% in each case. Also, the inhibition at 30 µM in the assay on HeLa (cervical cancer) was no less than 50%.
Take `COc1ccc(CCCc2ccc(/C=C3/C(C)=C(CC(=O)O)c4cc(Cl)ccc43)cc2)cc1` [B127, (Z)-2-(5-Chloro-1-(4-(3-(4-methoxyphenyl)propyl)benzylidene)-2-methyl-1H-inden-3-yl)acetic acid]: the inhibition at 3.3 µM is no less than 50% in assay [1]; no less than 50% in the assay on HepG2 (liver cancer); less than 30% with SW480 (colon cancer); no less than 50% in assay [2]; no less than 50% in assay [3]; no less than 50% in assay [4]. Further, the inhibition at 3.3 µM in the assay on HeLa (cervical cancer) was no less than 50%. The inhibition at 10 µM (in assay [1]; in the assay with HepG2 (liver cancer); with SW480 (colon cancer); in assay [2]; in assay [3]; in assay [4]) was no less than 50% in each case. Besides, the inhibition at 10 µM with HeLa (cervical cancer) is no less than 50%.
Turning to `CC1=C(CC(=O)O)c2cc(F)ccc2/C1=C\c1ccc(OC2CCC(F)(F)CC2)cc1` [C205, (Z)-2-(1-(4-((4,4-Difluorocyclohexyl)oxy)benzylidene)-5-fluoro-2-methyl-1H-inden-3-yl)acetic acid], the inhibition at 3.3 µM in assay [1] is no less than 50%; in the assay with HepG2 (liver cancer), less than 30%; with SW480 (colon cancer), 30 to 50%; in assay [2] it was no less than 50%; in assay [3], less than 30%; in assay [4] it was less than 30%. The inhibition at 3.3 µM in the assay with HeLa (cervical cancer) was less than 30%. In addition, the inhibition at 10 µM in assay [1] is no less than 50%; in the assay with HepG2 (liver cancer) it was 30 to 50%; in the assay with SW480 (colon cancer), 30 to 50%; in assay [2] it was no less than 50%; in assay [3] it was 30 to 50%; in assay [4], no less than 50%. In addition, in the assay on HeLa (cervical cancer), the inhibition at 10 µM was no less than 50%. For the same compound, the inhibition at 30 µM (in assay [1]; with HepG2 (liver cancer); with SW480 (colon cancer); in assay [2]; in assay [3]; in assay [4]) was no less than 50% throughout. Besides, in the assay on HeLa (cervical cancer), the inhibition at 30 µM is no less than 50%.
In the case of `CC1=C(CC(=O)O)c2cc(Cl)ccc2/C1=C\c1cccc(Oc2ccc(C#N)cc2)c1` [C94, (Z)-2-(5-Chloro-1-(3-(4-cyanophenoxy)benzylidene)-2-methyl-1H-inden-3-yl)acetic acid], the inhibition at 3.3 µM in assay [1] was less than 30%; in the assay on HepG2 (liver cancer), less than 30%; with SW480 (colon cancer), less than 30%; in assay [2] it was 30 to 50%; in assay [3] it was no less than 50%; in assay [4], less than 30%. Also, the inhibition at 3.3 µM with HeLa (cervical cancer) is less than 30%. Further, the inhibition at 10 µM was 30 to 50% in assay [1]; no less than 50% in the assay on HepG2 (liver cancer); less than 30% with SW480 (colon cancer); 30 to 50% in assay [2]; no less than 50% in assay [3]; no less than 50% in assay [4]. Further, in the assay with HeLa (cervical cancer), the inhibition at 10 µM was no less than 50%.
`CC1=C(CC(=O)O)c2cc(F)ccc2/C1=C\c1cccc(Oc2ccc(F)c(F)c2)c1` [C98, (Z)-2-(1-(3-(3,4-Difluorophenoxy)benzylidene)-5-fluoro-2-methyl-1H-inden-3-yl)acetic acid]: the inhibition at 3.3 µM in assay [1] was less than 30%; with HepG2 (liver cancer), less than 30%; with SW480 (colon cancer), less than 30%; in assay [2], 30 to 50%; in assay [3], less than 30%; in assay [4], less than 30%. In addition, the inhibition at 3.3 µM in the assay with HeLa (cervical cancer) was less than 30%. Moreover, the inhibition at 10 µM in assay [1] was 30 to 50%; with HepG2 (liver cancer), no less than 50%; with SW480 (colon cancer) it was less than 30%; in assay [2], no less than 50%; in assay [3], 30 to 50%; in assay [4], less than 30%. Moreover, in the assay on HeLa (cervical cancer), the inhibition at 10 µM was no less than 50%.
`CCc1ccc2c(c1)/C(=C\c1ccc(COCc3ccc(F)cc3)cc1)C(C)=C2CC(=O)O` [B121, (Z)-2-(6-Ethyl-1-(4-(((4-fluorobenzyl)oxy)methyl)benzylidene)-2-methyl-1H-inden-3-yl)acetic acid]: the inhibition at 3.3 µM in assay [1] was less than 30%; in the assay on HepG2 (liver cancer) it was less than 30%; with SW480 (colon cancer) it was less than 30%; in assay [2] it was 30 to 50%; in assay [3], no less than 50%; in assay [4] it was 30 to 50%. In addition, the inhibition at 3.3 µM with HeLa (cervical cancer) was less than 30%. Also, the inhibition at 10 µM is less than 30% in assay [1]; no less than 50% in the assay with HepG2 (liver cancer); 30 to 50% with SW480 (colon cancer); 30 to 50% in assay [2]; no less than 50% in assay [3]; no less than 50% in assay [4]. For the same compound, in the assay on HeLa (cervical cancer), the inhibition at 10 µM is no less than 50%.
In the case of `CC1=C(CC(=O)O)c2cc(F)ccc2/C1=C\c1ccc(Oc2ccc(F)cc2)cc1Cl` [C50, (Z)-2-(1-(2-Chloro-4-(4-fluorophenoxy)benzylidene)-5-fluoro-2-methyl-1H-inden-3-yl)acetic acid], the inhibition at 3.3 µM in assay [1] is less than 30%; in the assay on HepG2 (liver cancer) it was less than 30%; in the assay with SW480 (colon cancer), 30 to 50%; in assay [2], less than 30%; in assay [3], no less than 50%; in assay [4] it was less than 30%. The inhibition at 3.3 µM with HeLa (cervical cancer) was 30 to 50%. The inhibition at 10 µM (in assay [1]; in the assay on HepG2 (liver cancer); with SW480 (colon cancer); in assay [2]; in assay [3]; in assay [4]) was no less than 50% throughout. The inhibition at 10 µM in the assay on HeLa (cervical cancer) is no less than 50%.
